Test results: ChEMBL document CHEMBL1127144, “Cyclopentenones as potential inhibitors of penicillin sensitive enzymes” (Bioorg Med Chem Lett, 1993)
Activity calls are given as the source filed them. No cut-off for these calls is given here.

How the values were obtained:
Escherichia coli = assay: Compound was evaluated for antibacterial activity against Escherichia coli ESS; Inactive; format: functional, organism-based
[1] = molecular target: T1, Beta-lactamase 1 (Bacillus cereus) (UniProt P00809); assay: Compound was evaluated for the inhibitory activity against beta-lactamase of Bacillus cereus; Inactive
T1 sequence (whole entry): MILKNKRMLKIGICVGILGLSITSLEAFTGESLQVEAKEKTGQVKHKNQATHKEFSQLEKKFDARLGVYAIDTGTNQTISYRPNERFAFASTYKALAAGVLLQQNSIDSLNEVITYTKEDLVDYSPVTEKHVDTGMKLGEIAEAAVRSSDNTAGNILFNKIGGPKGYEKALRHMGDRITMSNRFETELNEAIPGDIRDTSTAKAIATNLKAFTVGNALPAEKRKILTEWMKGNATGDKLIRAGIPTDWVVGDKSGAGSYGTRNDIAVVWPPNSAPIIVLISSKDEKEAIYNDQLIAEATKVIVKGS

[2] = molecular target: Beta-lactamase TEM (Escherichia coli) (UniProt P62593); assay: Compound was evaluated for the inhibitory activity against beta-lactamase of Escherichia coli (TEM-1); Inactive
Sequence of Beta-lactamase TEM (Escherichia coli) (P62593 whole entry): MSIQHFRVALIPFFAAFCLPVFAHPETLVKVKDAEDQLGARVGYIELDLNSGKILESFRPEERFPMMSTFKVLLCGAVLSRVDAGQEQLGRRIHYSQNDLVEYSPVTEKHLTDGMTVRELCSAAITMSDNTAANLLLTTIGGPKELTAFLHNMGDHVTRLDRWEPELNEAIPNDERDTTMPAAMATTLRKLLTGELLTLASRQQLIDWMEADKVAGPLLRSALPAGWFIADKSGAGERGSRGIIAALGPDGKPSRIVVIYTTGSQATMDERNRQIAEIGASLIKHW

[3] = molecular target: Beta-lactamase (Streptomyces albus G) (UniProt P14559); assay: Compound was evaluated for the inhibitory activity against beta-lactamase of Streptomyces albus G; Inactive
Sequence of Beta-lactamase (Streptomyces albus G) (P14559 whole entry, looked up): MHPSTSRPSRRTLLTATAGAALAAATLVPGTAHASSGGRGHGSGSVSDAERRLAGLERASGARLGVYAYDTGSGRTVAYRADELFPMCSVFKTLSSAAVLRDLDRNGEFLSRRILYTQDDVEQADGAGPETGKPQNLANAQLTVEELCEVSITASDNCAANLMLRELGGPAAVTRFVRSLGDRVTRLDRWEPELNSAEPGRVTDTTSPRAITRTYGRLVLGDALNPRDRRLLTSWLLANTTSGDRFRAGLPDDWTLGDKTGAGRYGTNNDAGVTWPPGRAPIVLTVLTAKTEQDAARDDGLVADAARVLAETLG

Bacillus subtilis = assay: Compound was evaluated for antibacterial activity against Bacillus subtilis ATCC 6633; Inactive; format: functional, organism-based
Streptococcus agalactiae = assay: Compound was evaluated for antibacterial activity against Streptococcus agalactiae Hester; Inactive; format: functional, organism-based
Streptococcus pyogenes = assay: Compound was evaluated for antibacterial activity against Streptococcus pyogenes CN10; Inactive; format: functional, organism-based
[4] = system: mycobacterium catarrhalis; assay: Compound was evaluated for antibacterial activity against Mycobacterium catarrhalis 1502; Inactive; format: functional
Streptococcus pneumoniae = assay: Compound was evaluated for antibacterial activity against Streptococcus pneumoniae 1761; Inactive; format: functional, organism-based
Enterococcus faecalis = assay: Compound was evaluated for antibacterial activity against […] I; Inactive; format: functional, organism-based
Streptomyces = assay: Compound was evaluated for the inhibitory activity against D, D-carboxypeptidase of Streptomyces R39; Inactive
Staphylococcus aureus = assay: Compound was evaluated for antibacterial activity against Staphylococcus aureus Oxford; Inactive; format: functional, organism-based
Pseudomonas aeruginosa = assay: Compound was evaluated for antibacterial activity against Pseudomonas aeruginosa 447B-ES48; Inactive; format: functional, organism-based
Haemophilus influenzae = assay: Compound was evaluated for antibacterial activity against Haemophilus influenzae Q1; Inactive; format: functional, organism-based
[5] = molecular target: Beta-lactamase (Enterobacter cloacae) (UniProt P05364); assay: Compound was evaluated for the inhibitory activity against beta-lactamase of Enterobacter cloacae P99; Inactive
Sequence of Beta-lactamase (Enterobacter cloacae) (P05364 21-381 limits assumed): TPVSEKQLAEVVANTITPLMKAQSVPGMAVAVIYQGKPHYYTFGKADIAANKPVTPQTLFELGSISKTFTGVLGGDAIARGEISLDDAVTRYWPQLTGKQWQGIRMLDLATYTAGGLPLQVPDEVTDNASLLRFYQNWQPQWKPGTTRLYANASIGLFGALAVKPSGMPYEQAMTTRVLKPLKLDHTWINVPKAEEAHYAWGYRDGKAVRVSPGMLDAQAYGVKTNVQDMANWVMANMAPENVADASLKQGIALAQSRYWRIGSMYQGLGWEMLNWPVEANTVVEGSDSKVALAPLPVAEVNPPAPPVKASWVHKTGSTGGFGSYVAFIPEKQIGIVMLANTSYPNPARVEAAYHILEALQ

Activity [1] | Activity [2] | Activity [3] | Activity (Streptomyces) | Activity [5] | SMILES | Activity (Escherichia coli) | Activity (Bacillus subtilis) | Activity (Streptococcus agalactiae) | Activity (Streptococcus pyogenes) | Activity [4] | Activity (Streptococcus pneumoniae) | Activity (Enterococcus faecalis) | Activity (Staphylococcus aureus) | Activity (Pseudomonas aeruginosa) | Activity (Haemophilus influenzae)
inactive | inactive | inactive | inactive | inactive | CO/N=C(/C(=O)NC1C=C(CC(=O)O)C(=O)C1)c1csc(N)n1 (stereo not given) | inactive | inactive | inactive | inactive | inactive | inactive | inactive | inactive | inactive | inactive
inactive | inactive | inactive | inactive | inactive | O=C(O)CC1=CC(NC(=O)Cc2ccccc2)CC1=O (stereo not given) | inactive | inactive | inactive | inactive | inactive | inactive | inactive | inactive | inactive | inactive
inactive | inactive | inactive | inactive | inactive | NC1C=C(CC(=O)O)C(=O)C1 (stereo not given) | inactive | inactive | inactive | inactive | inactive | inactive | inactive | inactive | inactive | inactive
